# Measurements as given in patent publication EP2926812A1, “USE OF ARTEMETHER IN PREPARATION OF DRUG FOR TREATING LEUKEMIA” (Kunming Pharmaceutical Corp., priority 2012, dated 2014).
# Tested on: K562 nude mice transplanted tumor
# Test: Inhibition of growth of K562 nude mice transplanted tumor (pre-trial, experiment 1, experiment 2)
# Type: in vivo, Balb/c nude mice
# Conditions: cyclophosphamide 10 ml/kg intraperitoneal; for tumor sizes: n=6; for inhibition ratio: of tumor mass
# Excerpt: 2.4 K562 cell: primary K562 cell is derived from bone marrow of a patient having leukemia, introduced by Blood Research Institute from abroad, stored and passaged in Pathologic Cell Bank; cultured in RPMI1640 medium (comprising 10% fetal bovine serum).
# 2.6 experimental animal: Balb/c nude mice, 4~5 weeks old, weight: 17~20 g, gender: half male and half female. Experimental Animal Institute of the Chinese Academy of Medical Sciences, certification number of experimental animals: SCXK (JING) 2005-0013.
# 3.1.1 Balb/c nude mice were subjected to 3.0Gy whole-body irradiation, after subcutaneous inoculation of primary K562 cells. About 4 weeks after inoculation, tumor masses in growing were removed and transplanted into […], and this process was repeated for 2~3 passages to establish high oncogenic K562 cell line.
# 3.1.2 Nude mice were subjected to 3.0Gy whole-body irradiation, after subcutaneous inoculation of the K562 cells. One week after inoculation, nude mice with visible tumors were divided into the following 4 groups each consisting of 6 animals. The following dosages were administered for 3 continuous weeks, with 7 doses per week, a total of 21 doses.
# Model control group: intraperitoneal injection of 20% aqueous solution of excipient at 0.2 ml/animal.
# High dosage group: intraperitoneal injection of artemether at 150 ml/kg.
# Middle dosage group: intraperitoneal injection of artemether at 100 ml/kg.
# Low dosage group: intraperitoneal injection of artemether at 50 ml/kg.
# Nude mice were subjected to a 3.0Gy whole-body irradiation, after subcutaneous inoculation of the K562 cells. One week after inoculation, nude mice with visible tumors were divided into the following 5 groups each consisting of 6 animals. The following dosages were administered for 3 continuous weeks, with 5 doses per week, a total of 15 doses.
# Positive control group: intraperitoneal injection of cyclophosphamide at 10 ml/kg.
# High dosage group: intraperitoneal injection of artemether at 100 ml/kg.
# Middle dosage group: intraperitoneal injection of artemether at 60 ml/kg.
# Low dosage group: intraperitoneal injection of artemether at 40 ml/kg.
# Nude mice were subjected to a 3.0Gy whole-body irradiation, after subcutaneous inoculation of the K562 cells. One week after inoculation, nude mice with visible tumors were divided into the following 5 groups each consisting of 6 nude mice.
# Model control group: intraperitoneal injection of 20% solution of excipient at 0.2ml/animal. The dosage was administered for 3 weeks, with 7 doses per week, a total of 21 doses.
# Positive control group: intraperitoneal injection of cyclophosphamide at 10 ml/kg. The dosage was administered for 3 weeks, with 7 doses per week, a total of 21 doses.
# High dosage group: intraperitoneal injection of artemether at 100 ml/kg. The dosage was administered for 3 weeks, with 5 doses per week, a total of 15 doses.
# Middle dosage group: intraperitoneal injection of artemether at 60 ml/kg. The dosage was administered for 3 weeks, with 7 doses per week, a total of 21 doses.
# Low dosage group: intraperitoneal injection of artemether at 40 ml/kg. The dosage was administered for 3 weeks, with 7 doses per week, a total of 21 doses.
# [1] = experiment 1, 15 doses, 4 weeks after inoculation
# [2] = experiment 2, 21 doses, 4 weeks after inoculation
compound,measurement,setting,value
"O=P1(N(CCCl)CCCl)NCCCO1 (stereo not drawn) [Cyclophosphamide, cyclophosphamide]",tumor sizes,"experiment 1, 15 doses in 3 weeks, 1 week after inoculation",48.1±10.9 mm3
same,tumor sizes,"experiment 1, 15 doses in 3 weeks, 2 weeks after inoculation",104.9±60.3 mm3
same,tumor sizes,"experiment 1, 15 doses in 3 weeks, 3 weeks after inoculation",373.7±319.9 mm3
same,tumor sizes,"experiment 1, 15 doses in 3 weeks, 4 weeks after inoculation",799.0±571.3 mm3
same,tumor mass,[1],651.7 ± 544.3 mg
same,tumor sizes,"experiment 2, 21 doses in 3 weeks, 1 week after inoculation",30.7±10.9 mm3
same,tumor sizes,"experiment 2, 21 doses in 3 weeks, 2 weeks after inoculation",77.3±49.8 mm3
same,tumor sizes,"experiment 2, 21 doses in 3 weeks, 3 weeks after inoculation",203.1 ±94.7 mm3
same,tumor sizes,"experiment 2, 21 doses in 3 weeks, 4 weeks after inoculation",327.0±206.8 mm3
same,tumor mass,[2],241.7 ± 176.8 mg
same,inhibition ratio,[1],39.2%
same,inhibition ratio,[2],83.3%
